Source: paper PMC4191602 (Journal of Medicinal Chemistry, 2014)

Columns and labels:
influenza A endonuclease = conditions: earlier studies with phenyl substituted 3-hydroxypyridin-2(1H)-ones; cited from earlier work
[1] = biological target: Influenza A endonuclease (pandemic H1N1 endonuclease, residues 1–204) (Influenza A virus, UniProt C3W5S0); format: biochemical

In the case of O=c1[nH]ccc(-c2ccc(F)cc2)c1O [4-(4-fluorophenyl)-3-hydroxypyridin-2(1H)one], the “activity as endonuclease inhibitor (in words)” value (influenza A endonuclease) is listed as “did not exhibit significant activity”.
For O=c1[nH]cc(-c2ccc(F)cc2)[nH]c1=O [compound 1, 5-(4-Fluorophenyl)pyrazine-2,3(1H,4H)-dione], the “activity as an endonuclease inhibitor (in words)” value [1] was “comparatively weak activity” and the “less potent than either 5- or 6-(4-fluorophenyl)-3-hydroxypyridin-2(1H)-one” value [1] was “more than 80 times”.
For O=c1[nH]cnc(-c2ccc(F)cc2)c1O [compound 2, 6-(4-Fluorophenyl)-5-hydroxypyrimidin-4(3H)-one], the “activity as an endonuclease inhibitor (in words)” value [1] was “lack of activity”.
With N#Cc1cccc(-c2ncc(O)c(=O)[nH]2)c1 [compound 10, 3-(5-Hydroxy-6-oxo-1,6-dihydropyrimidin-2-yl)benzonitrile] the “potency compared to the 4-cyanophenyl isomer 9” value [1] was “approximately twice as potent”.
For O=c1[nH]c(-c2ccc(-c3nnn[nH]3)cc2)ncc1O [compound 11, 2-(4-(1H-Tetrazol-5-yl)phenyl)-5-hydroxypyrimidin-4(3H)-one], the “potency relative to the 3-(tetrazoly)phenyl derivative 12” value [1] was 3 fold.
In the case of O=c1[nH]ncc(-c2ccc(F)cc2)c1O [compound 13, 5-(4-Fluorophenyl)-4-hydroxypyridazin-3(2H)-one], the “activity as an endonuclease inhibitor (in words)” value [1] is reported as “did not exhibit significant activity”.
